Active and inactive are the calls of the source.
Experiments:
Aminopeptidase N = target: T1, Aminopeptidase N (Plasmodium falciparum FcB1/Columbia, UniProt O96935); assay: malaria alanyl aminopeptidase activity blockers – biochemical, fluorogenic H-Leu-NHMec substrate, 1536-well (AID 1445); design: species or system Plasmodium falciparum 3D7, 3D7
T1 sequence (O96935 whole entry): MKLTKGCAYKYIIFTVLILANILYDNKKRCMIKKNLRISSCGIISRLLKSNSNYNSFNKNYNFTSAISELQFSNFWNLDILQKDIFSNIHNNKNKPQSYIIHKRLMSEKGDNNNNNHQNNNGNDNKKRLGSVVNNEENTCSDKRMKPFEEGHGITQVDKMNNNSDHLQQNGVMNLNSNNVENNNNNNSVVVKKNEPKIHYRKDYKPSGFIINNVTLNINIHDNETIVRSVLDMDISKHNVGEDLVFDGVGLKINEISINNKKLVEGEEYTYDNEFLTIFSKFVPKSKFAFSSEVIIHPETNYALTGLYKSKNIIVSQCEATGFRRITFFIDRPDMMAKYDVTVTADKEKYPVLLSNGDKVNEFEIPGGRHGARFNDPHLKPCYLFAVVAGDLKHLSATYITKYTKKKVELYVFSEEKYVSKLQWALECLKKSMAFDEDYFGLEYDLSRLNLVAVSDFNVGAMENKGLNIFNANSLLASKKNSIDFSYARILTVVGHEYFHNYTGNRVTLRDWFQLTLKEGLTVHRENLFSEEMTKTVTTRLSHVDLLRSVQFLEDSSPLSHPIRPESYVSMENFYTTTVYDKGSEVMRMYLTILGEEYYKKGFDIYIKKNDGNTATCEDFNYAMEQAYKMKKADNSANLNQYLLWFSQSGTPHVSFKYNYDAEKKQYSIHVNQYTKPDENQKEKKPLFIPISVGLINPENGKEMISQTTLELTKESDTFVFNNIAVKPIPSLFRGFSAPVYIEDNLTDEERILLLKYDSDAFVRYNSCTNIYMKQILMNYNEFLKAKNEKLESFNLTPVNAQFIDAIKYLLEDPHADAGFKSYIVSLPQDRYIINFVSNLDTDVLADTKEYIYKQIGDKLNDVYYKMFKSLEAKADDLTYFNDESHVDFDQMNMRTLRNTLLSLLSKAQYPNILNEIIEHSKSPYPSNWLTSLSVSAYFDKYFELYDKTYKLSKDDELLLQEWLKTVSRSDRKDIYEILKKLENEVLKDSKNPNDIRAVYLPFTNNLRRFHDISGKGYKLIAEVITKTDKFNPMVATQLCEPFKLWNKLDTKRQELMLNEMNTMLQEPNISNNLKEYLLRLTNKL

[1] = target: T2, RNA-binding protein pos-1 (Caenorhabditis elegans, UniProt G5EF15); assay: disruptors of C. elegans POS-1 RNA interaction – biochemical, fluorescence polarization, dose response (AID 1964);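 also: purified POS-1 fused to maltose binding protein made in E. coli; potency of compounds blocking POS-1 binding to fluorescent RNA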
T2 sequence (G5EF15 whole entry): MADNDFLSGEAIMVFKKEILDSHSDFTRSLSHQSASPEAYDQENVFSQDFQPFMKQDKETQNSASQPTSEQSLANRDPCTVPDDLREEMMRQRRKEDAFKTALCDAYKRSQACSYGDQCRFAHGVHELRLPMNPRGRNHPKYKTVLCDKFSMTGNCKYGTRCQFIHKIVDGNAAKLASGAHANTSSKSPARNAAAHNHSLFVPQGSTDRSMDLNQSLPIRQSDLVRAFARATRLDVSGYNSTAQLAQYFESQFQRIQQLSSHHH

SUMO-activating enzyme [2] = target: T3, SUMO-activating enzyme (Homo sapiens, UniProt Q9UBT2); assay: blockers of UBC9-mediated SUMO conjugation – biochemical, AlphaScreen, SUMOylation inhibitor project, confirmation (AID 2018); format: functional
[3] = target: T4, Zinc finger protein mex-5 (Caenorhabditis elegans, UniProt Q9XUB2); assay: potency of MEX-5 RNA-binding blockers – biochemical, C. elegans, fluorescence polarization, dose response (AID 1960)
T4 sequence (Q9XUB2 whole entry): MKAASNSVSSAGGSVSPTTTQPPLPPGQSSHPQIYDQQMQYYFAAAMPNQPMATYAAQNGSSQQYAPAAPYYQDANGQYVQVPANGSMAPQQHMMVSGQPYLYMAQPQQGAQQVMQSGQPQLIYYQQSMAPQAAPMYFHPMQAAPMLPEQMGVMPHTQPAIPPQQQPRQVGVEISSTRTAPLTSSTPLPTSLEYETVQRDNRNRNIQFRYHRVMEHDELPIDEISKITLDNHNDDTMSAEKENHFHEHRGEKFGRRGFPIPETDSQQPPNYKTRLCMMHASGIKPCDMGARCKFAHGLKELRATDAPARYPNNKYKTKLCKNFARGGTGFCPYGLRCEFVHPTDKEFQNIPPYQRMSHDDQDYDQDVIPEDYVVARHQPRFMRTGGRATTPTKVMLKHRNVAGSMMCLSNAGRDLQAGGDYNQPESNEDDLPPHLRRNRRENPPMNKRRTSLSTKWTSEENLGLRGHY

[4] = target: T5, Heat shock factor protein 1 (Mus musculus, UniProt P38532); assay: decrease of HSF1-responsive luciferase luminescence – cell-based, NIH3T3, dose retest, confirmation (AID 2382); format: functional;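 also: NIH3T3 fibroblasts with HSF1-driven luciferase reporter stressed by proteasome inhibitor MG132; luminescence from HSF1-driven luciferase expression after 8 hours of MG132 stress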
T5 sequence (P38532 whole entry): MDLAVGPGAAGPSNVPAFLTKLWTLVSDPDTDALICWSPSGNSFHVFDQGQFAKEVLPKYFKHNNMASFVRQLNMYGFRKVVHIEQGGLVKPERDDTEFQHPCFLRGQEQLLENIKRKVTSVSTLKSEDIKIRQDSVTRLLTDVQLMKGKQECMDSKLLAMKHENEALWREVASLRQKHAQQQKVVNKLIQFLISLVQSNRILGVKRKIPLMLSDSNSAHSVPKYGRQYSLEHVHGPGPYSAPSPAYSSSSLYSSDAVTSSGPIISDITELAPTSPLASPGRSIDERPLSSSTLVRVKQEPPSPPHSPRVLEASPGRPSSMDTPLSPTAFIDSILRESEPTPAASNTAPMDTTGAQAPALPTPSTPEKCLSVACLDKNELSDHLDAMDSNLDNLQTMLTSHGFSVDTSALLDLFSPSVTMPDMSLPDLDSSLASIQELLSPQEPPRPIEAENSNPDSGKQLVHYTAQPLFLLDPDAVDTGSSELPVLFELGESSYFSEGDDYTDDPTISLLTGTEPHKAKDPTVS

SUMO-activating enzyme [5] = target: T3, SUMO-activating enzyme; assay: blockers of SAE1/SAE2–UBC9 SUMO transfer – biochemical, HTRF, uHTS, primary screen (AID 2006); format: protein-complex assay
Nonstructural protein 1 = Nonstructural protein 1 (Influenza A virus, UniProt Q194T2); format: functional, Influenza A virus (A/California/07/2009(H1N1))
[6] = tested on: Streptococcus sp. 'group A'; assay: Streptococcus pyogenes SK(-)GAS viability under kanamycin – luminescence, BacTiterGlo, confirmation, counter-screen for streptokinase expression inhibitor project, dose response (AID 1900); format: functional, organism-based
[7] = Trypanosoma cruzi growth suppression in host cells – NIH3T3 host cells, beta-gal luminescence, confirmation (AID 2044); format: functional, cell-based;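 also: intracellular parasites grown in NIH/3T3 mouse fibroblasts as host cells; luminescent beta-galactosidase reporter signal from transgenic T. cruzi replicating inside host cells; inhibitors lower the luminescence signal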
Streptococcus = assay: GAS UMAA2166 growth inhibition – luminescence, BacTiterGlo, counter-screen for streptokinase expression inhibitor project, dose response (AID 1915); format: functional, organism-based;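 also: potency for reduction of bacterial viability or growth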
[8] = target: C-C chemokine receptor type 6 (Homo sapiens, UniProt P51684); assay: antagonism of CCR6 beta-arrestin recruitment – cell-based, luminescent beta-arrestin readout, dose response (AID 504728); format: functional
Beta-galactosidase = Beta-galactosidase (Escherichia coli, UniProt Q8VNN2); assay: detection-enzyme interference by beta-gal modulators – biochemical, E. coli enzyme, set 3, artefact control for CCR6 antagonist project, dose response (AID 504712); format: functional
Vero = assay: cells; format: functional; conditions: Chlorocebus sabaeus
[9] = luciferase reporter signal suppression in cells – H4 neuroglioma cells, luminescence, dose response (AID 1990); format: functional, cell-based
cells [10] = format: functional, cell-based
[11] = Luminescence Cell-Based Dose Response HTS to Identify Inhibitors of 5'UTR Stem-Loop Driven Prion Protein mRNA Translation in H4 Neuroglioblastoma Cells. [Related pubchem assays: 1827 (Project Summary), 1813 (Primary HTS)]; format: functional
[12] = alpha-synuclein stem-loop luciferase translation blockers – H4 neuroglioma cells, luminescence, confirmation (AID 1988); format: functional, cell-based
cells [13] = format: functional, cell-based; remark: listed apart in the source
[14] = NIH3T3 cell viability loss – ATP luminescence, mouse fibroblasts, counter-screen, dose response (AID 2010); format: functional, cell-based;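 also: cells exposed to compound for about 90 hours before reading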
[15] = THP-1 cell cytotoxicity, dose response, cytotoxicity control for non-replicating M. tuberculosis project (AID 489025); format: functional
[16] = HepG2 cell cytotoxicity, dose response, cytotoxicity control for non-replicating M. tuberculosis project (AID 489018); format: functional; conditions: Mycobacterium tuberculosis
[17] = Vero E6 cell cytotoxicity, dose response, cytotoxicity control for non-replicating M. tuberculosis project, secondary assay (AID 492998); format: functional, VeroE6; conditions: Vero C1008
cells [18] = format: functional
H9c2 = assay: cells; format: functional, cell-based; conditions: Rattus norvegicus, H9c2, Myocardium;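 also: confirmatory concentration-response retest of ultra-high-throughput screening hits for modulation of myocardial damage; cell death induced by hydrogen peroxide oxidative stress; compound pretreatment for 60 min then peroxide exposure for 2 h; potency is for protecting the cells against peroxide damage rather than for killing them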
[19] = reduction of Shn3 3'UTR-driven luciferase in osteoblasts – cell-based, Clone20 osteoblasts, firefly luciferase, cherry-picked, dose response (AID 624132); format: functional;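 also: firefly luciferase luminescence from reporter carrying the Shn3 3'UTR in osteoblasts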
[20] = loss of viability in HepG2 cells – cell-based, CellTiter-Glo, cherry-picked, cytotoxicity control for Shn3 inhibitor project, dose response (AID 624134); format: functional
[21] = non-specific 3'UTR reporter inhibition in Clone20-Shn3RL – cell-based, Renilla luciferase, cherry-picked, counter-screen for Shn3 inhibitor project, dose response (AID 624133); format: functional
[22] = target: Voltage-dependent T-type calcium channel subunit alpha-1H (Homo sapiens, UniProt O95180); assay: human CACNA1H calcium influx blockade – cell-based, synthetic library set 1, calcium flux (AID 493022); format: functional
[23] = protection from phage-mediated lysis, alamar blue read-out – E. coli UTI89, K1F phage, bacterial capsule biogenesis inhibitors (AID 488966); format: functional

T3 sequence (Q9UBE0 whole entry): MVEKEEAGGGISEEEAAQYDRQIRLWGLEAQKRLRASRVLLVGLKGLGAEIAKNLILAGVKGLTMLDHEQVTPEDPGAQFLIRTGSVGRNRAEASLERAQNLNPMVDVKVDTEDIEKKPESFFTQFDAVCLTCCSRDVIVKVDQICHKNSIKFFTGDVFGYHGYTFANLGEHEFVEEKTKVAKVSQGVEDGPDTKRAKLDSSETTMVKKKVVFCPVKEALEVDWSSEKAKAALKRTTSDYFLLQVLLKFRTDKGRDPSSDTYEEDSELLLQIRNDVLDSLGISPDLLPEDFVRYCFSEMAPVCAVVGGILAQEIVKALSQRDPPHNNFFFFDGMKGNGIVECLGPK
T3 sequence (Q9UBT2 whole entry): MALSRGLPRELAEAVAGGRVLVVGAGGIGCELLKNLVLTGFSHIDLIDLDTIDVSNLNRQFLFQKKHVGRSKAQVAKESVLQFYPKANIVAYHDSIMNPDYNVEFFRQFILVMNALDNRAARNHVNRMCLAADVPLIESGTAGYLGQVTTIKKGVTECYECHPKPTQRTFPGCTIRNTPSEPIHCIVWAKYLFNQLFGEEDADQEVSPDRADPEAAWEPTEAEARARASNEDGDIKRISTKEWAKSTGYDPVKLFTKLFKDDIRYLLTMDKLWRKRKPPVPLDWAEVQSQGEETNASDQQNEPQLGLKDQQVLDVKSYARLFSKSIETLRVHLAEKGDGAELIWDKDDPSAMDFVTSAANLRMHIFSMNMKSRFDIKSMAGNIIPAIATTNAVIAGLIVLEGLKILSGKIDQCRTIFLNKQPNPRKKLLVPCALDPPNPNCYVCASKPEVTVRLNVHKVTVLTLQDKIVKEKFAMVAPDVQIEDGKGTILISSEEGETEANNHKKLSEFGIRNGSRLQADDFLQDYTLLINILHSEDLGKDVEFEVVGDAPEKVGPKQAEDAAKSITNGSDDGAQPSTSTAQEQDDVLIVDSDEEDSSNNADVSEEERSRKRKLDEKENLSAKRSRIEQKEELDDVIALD
Chain of Nonstructural protein 1 (Q194T2 whole entry): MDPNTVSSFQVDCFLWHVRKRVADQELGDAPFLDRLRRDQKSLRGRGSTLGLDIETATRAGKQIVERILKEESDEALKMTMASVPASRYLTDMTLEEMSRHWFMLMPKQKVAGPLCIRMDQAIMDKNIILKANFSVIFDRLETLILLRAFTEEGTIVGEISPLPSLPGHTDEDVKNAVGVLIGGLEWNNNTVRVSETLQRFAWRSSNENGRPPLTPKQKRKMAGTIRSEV
Chain of Voltage-dependent T-type calcium channel subunit alpha-1H (O95180 whole entry): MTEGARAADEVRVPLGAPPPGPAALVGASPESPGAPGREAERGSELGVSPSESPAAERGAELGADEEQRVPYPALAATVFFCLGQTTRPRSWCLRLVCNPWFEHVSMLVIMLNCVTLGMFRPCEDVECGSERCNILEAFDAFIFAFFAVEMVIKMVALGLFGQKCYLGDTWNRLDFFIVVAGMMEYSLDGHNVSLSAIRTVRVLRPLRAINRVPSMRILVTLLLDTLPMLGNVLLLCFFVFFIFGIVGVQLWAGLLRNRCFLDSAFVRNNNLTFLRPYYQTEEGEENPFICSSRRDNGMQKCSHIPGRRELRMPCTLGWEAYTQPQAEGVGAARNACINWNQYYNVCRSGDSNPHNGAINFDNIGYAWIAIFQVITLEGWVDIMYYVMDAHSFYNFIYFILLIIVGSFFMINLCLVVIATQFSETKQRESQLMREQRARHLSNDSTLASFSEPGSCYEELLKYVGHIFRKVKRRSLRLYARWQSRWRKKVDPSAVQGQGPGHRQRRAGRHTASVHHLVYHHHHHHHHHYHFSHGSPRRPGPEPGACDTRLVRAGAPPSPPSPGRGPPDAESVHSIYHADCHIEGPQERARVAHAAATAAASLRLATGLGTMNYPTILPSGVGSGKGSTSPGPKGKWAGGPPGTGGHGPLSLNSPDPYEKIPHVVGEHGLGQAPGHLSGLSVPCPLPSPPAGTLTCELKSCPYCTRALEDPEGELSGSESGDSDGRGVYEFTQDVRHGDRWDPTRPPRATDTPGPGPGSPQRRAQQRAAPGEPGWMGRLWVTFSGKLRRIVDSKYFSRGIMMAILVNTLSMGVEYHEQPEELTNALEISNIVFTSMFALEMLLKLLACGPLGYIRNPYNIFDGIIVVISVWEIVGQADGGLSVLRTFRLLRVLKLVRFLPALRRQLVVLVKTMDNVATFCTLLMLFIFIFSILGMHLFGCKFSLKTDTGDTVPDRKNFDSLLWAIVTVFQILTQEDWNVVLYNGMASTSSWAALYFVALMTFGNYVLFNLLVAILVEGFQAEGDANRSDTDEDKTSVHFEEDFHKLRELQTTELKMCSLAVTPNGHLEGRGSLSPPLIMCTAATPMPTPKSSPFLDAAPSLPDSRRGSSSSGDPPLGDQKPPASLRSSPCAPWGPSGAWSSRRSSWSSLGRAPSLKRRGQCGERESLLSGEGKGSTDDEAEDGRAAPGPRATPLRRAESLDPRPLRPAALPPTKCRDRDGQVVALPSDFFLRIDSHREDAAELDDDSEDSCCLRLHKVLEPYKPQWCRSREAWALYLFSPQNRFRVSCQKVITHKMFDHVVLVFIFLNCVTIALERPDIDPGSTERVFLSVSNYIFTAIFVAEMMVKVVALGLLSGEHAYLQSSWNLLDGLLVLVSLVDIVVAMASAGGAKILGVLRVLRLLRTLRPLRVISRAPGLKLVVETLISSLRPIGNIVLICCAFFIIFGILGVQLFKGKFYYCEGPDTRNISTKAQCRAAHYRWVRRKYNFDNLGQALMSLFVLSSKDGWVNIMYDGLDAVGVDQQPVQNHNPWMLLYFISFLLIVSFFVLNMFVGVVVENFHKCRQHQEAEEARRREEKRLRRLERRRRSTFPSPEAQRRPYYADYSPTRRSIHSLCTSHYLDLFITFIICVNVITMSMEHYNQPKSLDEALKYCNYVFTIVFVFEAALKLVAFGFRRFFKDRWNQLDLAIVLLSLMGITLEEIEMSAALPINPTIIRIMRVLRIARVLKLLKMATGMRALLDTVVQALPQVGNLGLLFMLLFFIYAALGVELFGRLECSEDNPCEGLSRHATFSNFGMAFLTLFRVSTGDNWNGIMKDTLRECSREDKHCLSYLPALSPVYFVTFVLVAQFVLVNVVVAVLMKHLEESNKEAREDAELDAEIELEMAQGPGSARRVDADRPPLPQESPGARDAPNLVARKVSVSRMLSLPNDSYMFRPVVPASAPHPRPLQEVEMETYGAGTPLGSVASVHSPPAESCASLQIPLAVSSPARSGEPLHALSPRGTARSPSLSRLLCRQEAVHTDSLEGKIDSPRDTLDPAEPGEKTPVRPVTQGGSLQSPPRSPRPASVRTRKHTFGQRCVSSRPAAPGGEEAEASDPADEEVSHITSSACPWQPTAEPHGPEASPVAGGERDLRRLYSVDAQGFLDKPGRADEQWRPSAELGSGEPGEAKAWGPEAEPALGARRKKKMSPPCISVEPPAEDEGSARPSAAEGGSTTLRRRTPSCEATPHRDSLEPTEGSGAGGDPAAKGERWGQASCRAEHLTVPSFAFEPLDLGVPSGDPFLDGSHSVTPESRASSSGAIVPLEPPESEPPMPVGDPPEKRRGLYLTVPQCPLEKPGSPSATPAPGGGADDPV
Chain of Beta-galactosidase (Q8VNN2 whole entry): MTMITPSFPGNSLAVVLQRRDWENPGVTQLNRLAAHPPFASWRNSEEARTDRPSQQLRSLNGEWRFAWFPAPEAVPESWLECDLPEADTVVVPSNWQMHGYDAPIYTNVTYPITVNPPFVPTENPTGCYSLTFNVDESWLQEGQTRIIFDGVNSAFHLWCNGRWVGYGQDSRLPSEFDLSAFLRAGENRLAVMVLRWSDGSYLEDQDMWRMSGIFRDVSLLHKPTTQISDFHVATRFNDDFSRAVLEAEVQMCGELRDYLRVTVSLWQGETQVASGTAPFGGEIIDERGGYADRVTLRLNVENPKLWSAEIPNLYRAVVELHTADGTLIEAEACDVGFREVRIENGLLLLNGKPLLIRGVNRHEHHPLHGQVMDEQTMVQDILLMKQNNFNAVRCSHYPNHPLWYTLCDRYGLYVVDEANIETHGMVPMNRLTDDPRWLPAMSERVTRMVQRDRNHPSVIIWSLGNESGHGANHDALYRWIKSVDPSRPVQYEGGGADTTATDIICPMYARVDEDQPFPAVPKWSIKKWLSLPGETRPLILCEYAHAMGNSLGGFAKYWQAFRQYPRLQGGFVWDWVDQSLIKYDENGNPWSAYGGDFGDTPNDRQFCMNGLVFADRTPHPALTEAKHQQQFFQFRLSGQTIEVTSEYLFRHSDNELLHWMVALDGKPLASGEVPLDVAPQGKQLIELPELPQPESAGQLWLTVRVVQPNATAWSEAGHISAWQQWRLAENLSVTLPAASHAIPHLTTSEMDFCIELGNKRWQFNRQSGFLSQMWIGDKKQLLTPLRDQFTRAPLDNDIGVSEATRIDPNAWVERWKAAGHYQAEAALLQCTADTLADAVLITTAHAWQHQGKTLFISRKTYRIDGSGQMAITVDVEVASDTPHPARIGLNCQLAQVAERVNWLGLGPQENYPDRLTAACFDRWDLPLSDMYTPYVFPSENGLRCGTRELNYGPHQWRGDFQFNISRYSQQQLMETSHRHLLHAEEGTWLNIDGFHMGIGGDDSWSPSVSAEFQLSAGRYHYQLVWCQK
Chain of C-C chemokine receptor type 6 (P51684 whole entry): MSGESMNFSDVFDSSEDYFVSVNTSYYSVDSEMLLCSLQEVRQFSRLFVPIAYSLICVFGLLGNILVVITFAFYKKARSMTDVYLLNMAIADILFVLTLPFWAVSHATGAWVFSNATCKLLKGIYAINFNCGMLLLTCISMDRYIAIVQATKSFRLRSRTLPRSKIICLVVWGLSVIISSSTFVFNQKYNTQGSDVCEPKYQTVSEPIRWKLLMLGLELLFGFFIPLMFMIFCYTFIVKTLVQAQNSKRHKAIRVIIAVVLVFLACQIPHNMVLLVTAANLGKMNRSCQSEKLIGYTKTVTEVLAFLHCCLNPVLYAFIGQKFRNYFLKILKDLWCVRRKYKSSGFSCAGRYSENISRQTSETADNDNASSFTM

With `Cc1ccccc1N1C(=O)/C(=C/NNC(=O)c2ccccc2O)C(=O)NC1=S` the IC50 (Aminopeptidase N) was 11.5 µM (active), the EC50 [1] was 21.2 µM (active) and the IC50 (SUMO-activating enzyme [2]) was 25.7 µM (active). The EC50 [3] was 23.5 µM (active), the EC50 [4] was 30.8 µM (active) and the IC50 (SUMO-activating enzyme [5]) was 42.4 µM (active). For the same compound, the IC50 (Nonstructural protein 1) was 13.4 µM (active).

For `CCc1ccccc1OCC(=O)Nc1nc(-c2cccnc2)cs1`, the EC50 [6] was 0.428 µM (active), the EC50 [7] was 1.14 µM (active) and the EC50 (Streptococcus) was 3.28 µM (active). The IC50 [8] was > 66.6 µM (inactive), the IC50 (Beta-galactosidase) was > 66.6 µM (inactive) and the CC50 (Vero) was > 25 µM (active).

In the case of `Cc1cc(C)n(-c2ccc3cccc(NS(C)(=O)=O)c3n2)n1`, the EC50 [9] is reported as 0.137 µM (active), the EC50 (cells [10]) is reported as > 350 µM (not active) and the EC50 [11] is reported as 7.99 µM (active). For the same compound, the EC50 [12] was 0.159 µM (active), the EC50 [7] was 1.07 µM (active) and the EC50 (cells [13]) was > 350 µM (not active). For the same compound, the EC50 [14] was 0.68 µM (active), the CC50 [15] was 12.5 µM (active) and the CC50 [16] was 19.3 µM (active). The CC50 [17] was 3.8 µM (active), the IC50 (cells [18]) was > 25 µM (active) and the IC50 (H9c2) was > 79 µM (inactive). The AC50 [19] was 1.32 µM (active), the AC50 [20] was 6.2 µM (active) and the AC50 [21] was 0.759 µM (active).

For `O=C(COc1ccc(F)cc1Cl)Nc1nnc(-c2ccc3c(c2)OCCO3)o1`, the EC50 [22] was 2.6 µM (active).

With `Clc1ccc2c(NCCNC3CCCCC3)ccnc2c1` the IC50 [23] was > 150 µM (active).
